In US20010034454A1, “Description anti-mitotic agents which inhibit tubulin polymerization” (BYLOR UNIVERSITY AND ARIZONA DESEASE CONTROL RESEARCH …, priority 1998, published 2001):
≈ marks a conversion by molar mass, not a printed value. Where two headings read alike, the source gives them in different places.

How the values were obtained:
[1] = system: DU-145; assay: Human cancer cell line studies, DU-145; assay type: cell-based; settings: Prostate DU-145
Protocol: (§1) The assay used is described in Monks et al. Briefly, the cell suspensions, diluted according to tho particular cell type and the expected target cell density (5,000-40,000 cells per well based on cell growth characteristics), were added by pipet (100 μl) to 96-well microtiter plates. Inoculates were allowed a preincubation time of 24-28 hours at 37° C. for stabilization. Incubation with the inhibitor compounds lasted for 48 hours in 5% CO2 atmosphere and 100% humidity. Determination of cell growth was done by in situ fixation of cells, followed by staining with a protein-binding dye, sulforhodamine B (SRB), which binds to the basic amino acids of cellular macromolecules. The solubilized stain was measured spectrophotometrically.

[2] = system: BXPC-3; assay: Human cancer cell line studies, BXPC-3; assay type: cell-based; settings: Pancreas adn BXPC-3
Protocol: as §1

[3] = system: P388 leukemia cells; assay: Cytotoxic assay with P388 leukemia cells; assay type: cell-based, mouse
Text: The tubulin polymerization compounds can also be tested for their ability to inhibit tumor cell growth.

[4] = system: NCI-H460; assay: Growth inhibitory activity, human cancer cell line NCI-H460 (SRB); assay type: cell-based; settings: Lung-NSC NCI-H460
Protocol: as §1

[5] = system: RPMI-7951; assay: Human cancer cell line studies, RPMI-7951; assay type: cell-based; settings: Melanoma RPMI-7951
Protocol: as §1, with “3-(3′,4′,5′-Trimethoxybenzoyl)-2-(4′-methoxyphenyl)-6-methoxybenzo[b]-thiophene was evaluated in terms of growth inhibitory activity against several human cancer cell lines, including ovarian CNS, renal, lung, colon and melanoma lines. The assay” for “The assay”

[6] = system: U251; assay: Human cancer cell line studies, U251; assay type: cell-based; settings: CNS U251
Protocol: as §1, with “3-(3′,4′,5′-Trimethoxybenzoyl)-2-(4′-methoxyphenyl)-6-methoxybenzo[b]-thiophene was evaluated in terms of growth inhibitory activity against several human cancer cell lines, including ovarian CNS, renal, lung, colon and melanoma lines. The assay” for “The assay”

[7] = system: FADU; assay: Human cancer cell line studies, FADU; assay type: cell-based; settings: Pharynx-sqam FADU
Protocol: as §1

[8] = system: T1, tubulin; assay: Tubulin polymerization assay; assay type: biochemical, bovine
T1 construct: Purified tubulin is obtained from bovine brain cells as described in Hamel and Lin
Protocol: The ability of the various above described compounds to inhibit tubulin polymerization can be determined by in vitro assay. A suitable assay system is that described by Bai et al. A method for purifying tubulin from bovine brain cells is described by Hamel and Lin.
IC50 values for tubulin polymerization were determined according to the procedure described in Bai et al. Purified tubulin is obtained from bovine brain cells as described in Hamel and Lin. Various amounts of inhibitor were preincubated for 15 minutes at 37° C. with purified tubulin. After the incubation period, the reaction was cooled and GTP was added to induce tubulin polymerization. Polymerization was then monitored in a Gilford spectrophotometer at 350 nm. The final reaction mixtures (0.25 ml) contained 1.5 mg/ml tubulin, 0.6 mg/ml microtubule-associated proteins (MAPs), 0.5 mM GTP, 0.5 mM MgCl2, 4% DMSO and 0.1 M 4-morpholineethanesulfonate buffer (MES, pH 6.4). […]

[9] = system: tubulin; assay: Inhibition of binding of [3H]colchicine to tubulin; settings: comparator, concentration not given
Text: A measurement of each compound's tubulin affinity may also be determined through the compound's ability to inhibit colchichine-tubulin binding. A suitable assay is that described by Kang et al., involving the use of commercially available tritiated colchicine. Decreases in the amount of [^3H]colchicine-tubulin interaction due to the competitive binding of one of the novel inhibitors of this invention may be measured by autoradiography or scintillation counting.

[10] = system: SK-N-SH; assay: Human cancer cell line studies, SK-N-SH; assay type: cell-based; settings: Homo sapiens; Neuroblast SK-N-SH; read-out: GI50
Protocol: as §1

[11] = system: SW1736; assay: Human cancer cell line studies, SW1736; assay type: cell-based; settings: Homo sapiens, SW-1736; Thyroid ca SW1736; read-out: GI50
Protocol: as §1

[12] = P388 mouse leukemia, dosage required to inhibit 50% of cell growth, read-out: ED50 (the source's name)
[13] = Homo sapiens, U-251, read-out: GI50
[14] = purified tubulin […], GTP-induced, 350 nm, final steady-state number for compounds other than 1A and 10A, read-out: IC50 for inhibition of tubulin polymerization
[15] = P388 mouse leukemia, dosage required to inhibit 50% of cell growth

Row | Compound | GI50 ([1]; Homo sapiens, read-out: GI50) [µg/mL] | GI50 ([2]; Homo sapiens, read-out: GI50) [µg/mL] | IC50 [3, 12] [µg/mL] | GI50 ([4]; Homo sapiens, read-out: GI50) [µg/mL] | GI50 ([5]; Homo sapiens, read-out: GI50) [µg/mL] | GI50 [6, 13] [µg/mL] | GI50 ([7]; Homo sapiens, read-out: GI50) [µg/mL] | also measured
1 | CCOc1cc(C(=O)c2c(-c3ccc(OC)cc3)sc3cc(OC)ccc23)cc(OCC)c1OCC [Compound 7A, 3-(3′,4′,5′-triethoxybenzoyl)-2-(4′-methoxyphenyl)-6-methoxybenzo[b]thiophene] | > 10 | > 10 | > 100 | > 10 | > 10 | > 10 | > 10 | 
2 | COc1ccc(C(=O)c2c(-c3ccc(OC)cc3)sc3cc(OC)ccc23)cc1 [Compound 5A, 3-(4′-methoxybenzoyl)-2-(4′-methoxyphenyl)-6-methoxybenzo[b]thiophene] | > 10 | 8.9 (≈ 22 µM) | > 100 | > 10 | > 10 | > 10 | > 10 | 
3 | COc1ccc(/C=C\c2cc(OC)c(OC)c(OC)c2)cc1O [Combretastatin A-4, reference compound] |  |  |  |  |  |  |  | IC50 ([8]; read-out: 50% inhibition of the maximum tubulin assembly rate, inhibition of rate rather than steady state): […]; inhibition of the binding of [3H]colchicine to tubulin [9]: total inhibition
4 | COc1ccc(-c2sc3cc(OC)ccc3c2Oc2cc(OC)c(OC)c(OC)c2)cc1 [Compound 23B, 3-(3′,4′,5′-trimethoxyphenoxy)-2-(4′-methoxyphenyl)-6-methoxybenzo[b]thiophene] | 0.42 (≈ 0.928 µM) | 0.23 (≈ 0.508 µM) |  | 0.31 (≈ 0.685 µM) |  |  | 0.098 (≈ 0.217 µM) | IC50 [8, 14]: 1400 nM; IC50 ([3]; Mus musculus, P388, read-out: ED50): 3.09 µg/mL (≈ 6.83 µM); GI50 [10]: 0.063 µg/mL (≈ 0.139 µM); GI50 [11]: 0.73 µg/mL (≈ 1.61 µM)
5 | COc1ccc(-c2sc3cc(OC)ccc3c2C(=O)c2ccc(OC)c(OC)c2)cc1 [Compound 4A, 3-(3′,4′-dimethoxybenzoyl)-2-(4′-methoxyphenyl)-6-methoxybenzo[b]thiophene] | > 10 | 5.2 (≈ 12 µM) | > 10 | 4.6 (≈ 10.6 µM) |  |  | 4.7 (≈ 10.8 µM) | IC50 [8, 14]: > 40000 nM; GI50 [10]: 3.2 µg/mL (≈ 7.36 µM); GI50 [11]: > 10 µg/mL
6 | COc1ccc(-c2sc3cc(OC)ccc3c2C(=O)CCc2cc(OC)c(OC)c(OC)c2)cc1 [Compound 8A, 3-[3′-(3′,4′,5′-trimethoxyphenyl)propionyl]-2-(4′-methoxyphenyl)-6-methoxybenzo[b]thiophene] |  |  |  |  |  |  |  | GI50 [1]: >10 µg/mL; GI50 [2]: >10 µg/mL; ED50 [3, 15]: >10 µg/mL; GI50 [4]: 3.8 µg/mL (≈ 7.71 µM); GI50 [5]: >10 µg/mL; GI50 [6]: 4.5 µg/mL (≈ 9.14 µM); GI50 [7]: 9.1 µg/mL (≈ 18.5 µM)
7 | COc1ccc(-c2sc3cc(OC)ccc3c2C(=O)c2cc(OC)c(OC)c(OC)c2)cc1 [Compound 1A, 3-(3′,4′,5′-trimethoxybenzoyl)-2-(4′-methoxyphenyl)-6-methoxybenzo[b]thiophene] |  |  |  |  |  |  |  | melting point: 131 to 133 °C
8 | COc1ccc(-c2sc3cc(OC)ccc3c2C(=O)Cc2ccccc2)cc1 [Compound 20A, 3-(phenylacetyl)-2-(4′-methoxyphenyl)-6-methoxybenzo[b]thiophene] | > 10 | > 10 | > 10 | > 10 | > 10 | > 10 | 9.2 (≈ 23.7 µM) | 
9 | CCOc1ccc(C(=O)c2c(-c3ccc(OC)cc3)sc3cc(OC)ccc23)cc1 [Compound 6A, 3-(4′-ethoxybenzoyl)-2-(4′-methoxyphenyl)-6-methoxybenzo[b]thiophene] | 3.9 (≈ 9.32 µM) | 0.65 (≈ 1.55 µM) | > 100 | 2.4 (≈ 5.73 µM) | 3.2 (≈ 7.65 µM) | 0.43 (≈ 1.03 µM) | 0.48 (≈ 1.15 µM) | 
10 | CCOc1ccc(-c2sc3cc(OCC)ccc3c2C(=O)c2cc(OCC)c(OCC)c(OCC)c2)cc1 [Compound 9A, 3-(3′,4′,5′-triethoxybenzoyl)-2-(4′-ethoxyphenyl)-6-ethoxybenzo[b]thiophene] | > 10 | > 10 | > 10 | > 10 | > 10 | > 10 | > 10 | 
11 | COc1ccc(-c2sc3cc(OC)ccc3c2C(=O)Cc2cc(OC)c(OC)c(OC)c2)cc1 [Compound 21A] |  |  |  |  |  |  |  | GI50 [1]: >10 µg/mL; GI50 [2]: 9.8 µg/mL (≈ 20.5 µM); ED50 [3, 15]: >10 µg/mL; GI50 [4]: >10 µg/mL; GI50 [5]: >10 µg/mL; GI50 [6]: >10 µg/mL; GI50 [7]: 7.9 µg/mL (≈ 16.5 µM)
